Source: PMC10102027, “Helquat dyes targeting G-quadruplexes as a new class of anti-HIV-1 inhibitors” (Scientific Reports, 2023)

Tests used:
[1] = tested on: HIV-1 LTR G-quadruplex template (G4 LTR Stop); test: Taq polymerase stop assay; type: biochemical; details: for Fold change, all regions (A, B and C) together: normalized against control
Procedure: To address specifically the positions in the HIV-1 promoter region that are affected by the binding of G4-stabilizing agents, we performed a Taq polymerase stop assay. The wild-type LTR oligonucleotide was extended at the […] to include a primer-annealing region and used as a template for a single-cycle Taq polymerase reaction. The elongation of the radioactively labelled primer was performed at 45 °C in the presence or absence of the tested compounds and controls.
A Taq polymerase stop assay was carried out as described in a previous study. Briefly, the primer (G4 LTR primer, Supplementary Table S1) was 5′-end labelled with [γ-^32P]ATP using T4 polynucleotide kinase at 37 °C for 30 min. The T4 polynucleotide kinase was then inactivated by incubation at 65 °C for 5 min. The radioactively labelled primer was column-purified and stored at − 20 °C for further use. The labelled primer (1.7 pmol) was annealed to the template (2.1 pmol) in the LiCaco buffer and extended with the Go Taq DNA polymerase (2U/reaction, Promega) at 45 °C for 45 min. Samples were incubated with G-quadruplex-ligands at 45 °C for 45 min before DNA polymerase addition. The reactions were stopped by a denaturing solution (80% formamide, 10% glycerol, 0.025% xylen cyanol, 0.025% bromphenol blue and 10 mM EDTA pH 8); extension products were separated on 15% denaturing gel and visualized by phosphorimaging. The pixel intensity of bands was calculated using 1D gel analysis in ImageQuant TL software version 8.1 (GE HealthCare) after automatic background subtraction by Rolling Ball method.

[2] = tested on: G-quadruplexes in the HIV-1 LTR (G4 LTR FRET oligonucleotide); test: FRET melting assay; type: binding; details: 2 μM compound, 0.2 μM oligonucleotide
[3] = 2.5 µM, pixel intensity normalized against negative control

SMILES: NCCOc1cc(C(=O)Nc2cc(OCCN)c3ccccc3n2)nc(C(=O)Nc2cc(OCCN)c3ccccc3n2)c1 [PDS, pyridostatin, reference compound]
- Fold change, all regions (A, B and C) together ([1]; 1 μM): 2.0
- Fold change, all regions (A, B and C) together ([1]; 2.5 μM): 2.4
- Fold change: A (G-patch 6′) [1, 3]: 2.6
- Fold change: B (G-patch 6) [1, 3]: 2.7
- Fold change: C (G-patch 5) [1, 3]: 1.6
- Tm ([2]; 100 mM KCl, mean and standard error, three experiments): 93 ± 13 °C
- ΔTm ([2]; average Tm minus average Tm of PBS): 42 °C
